Measurements reported in patent US20080312192A1, “Diaryl Urea Derivatives in the Treatment of Protein Kinase Dependent Diseases” (priority 2003, published 2008).

Molecular target: T1, RET (Homo sapiens, UniProt P07949)
T1 construct: expresses the amino acid region 658-1072 (Swiss prot No. Q9BTB0); made in house; host or cells: Sf9 insect cells (baculovirus, vector pFB-GSTX3)
T1 sequence (P07949 658-1072 isoform P07949-2): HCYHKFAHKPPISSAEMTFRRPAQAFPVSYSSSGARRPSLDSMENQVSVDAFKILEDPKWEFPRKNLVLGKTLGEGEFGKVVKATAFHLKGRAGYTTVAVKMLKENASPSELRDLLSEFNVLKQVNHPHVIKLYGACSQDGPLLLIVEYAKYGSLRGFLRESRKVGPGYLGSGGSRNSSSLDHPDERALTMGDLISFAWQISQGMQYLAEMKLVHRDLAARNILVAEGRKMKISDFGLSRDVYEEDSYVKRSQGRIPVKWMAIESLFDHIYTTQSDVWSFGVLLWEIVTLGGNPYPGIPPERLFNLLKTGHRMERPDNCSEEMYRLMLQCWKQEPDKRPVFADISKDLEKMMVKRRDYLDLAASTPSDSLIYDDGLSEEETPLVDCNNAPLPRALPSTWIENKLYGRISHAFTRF
Assay: RET kinase inhibition (33P incorporation into poly(Glu,Tyr), GST-wtRET or GST-RET-Men2B)
Assay type: biochemical
Description: RET kinase inhibition is determined as follows:
The coding sequence for the cytoplasmic domain of wtRET is amplified by PCR from a cDNA library using specific primers. RET-Men2B is generated through site-directed mutagenesis resulting in the M918T mutation. The amplified DNA fragments and the pFB-GSTX3 vector are made compatible for ligation by digestion with SalI and KpnI. Ligation of these DNA fragments results in the baculovirus donor plasmids […] and pFB-GX3-RET-Men2B, respectively.
Production of virus: The baculovirus donor plasmids containing the kinase domains are transfected into the DH10Bac cell line (GIBCO) and the transfected cells are plated on selective agar plates. Colonies without insertion of the fusion sequence into the viral genome (carried by the bacteria) are blue. Single, white colonies are picked and viral DNA (bacmid) is isolated from the bacteria by standard plasmid purification procedures. Sf9 cells or Sf21 cells (American Type Culture Collection) are then transfected in 25 cm^2 flasks with the viral DNA using Cellfectin reagent.
Protein expression in Sf9 cells: Virus-containing media is collected from the transfected cell culture and used for infection to increase its titer. Virus-containing media obtained after two rounds of infection is used for large-scale protein expression. For large-scale protein expression 100 cm^2 round tissue culture plates are seeded with 5×10^7 cells/plate and infected with 1 mL of virus-containing media (approximately 5 MOIs). After 3 days, the cells are scraped off the plate and centrifuged at 500 rpm for 5 minutes. Cell pellets from 10-20, 100 cm^2 plates are re-suspended in 50 mL of ice-cold lysis buffer (25 mM Tris-HCl, pH 7.5, 2 mM EDTA, 1% NP-40, 1 mM DTT, 1 mM PMSF). The cells are stirred on ice for 15 minutes and then centrifuged at 5,000 rpms for 20 minutes.
Purification of GST-tagged proteins: The centrifuged cell lysate is loaded onto a 2 mL glutathione-sepharose column (Pharmacia) and washed 3× with 10 mL of 25 mM Tris-HCl, pH 7.5, 2 mM EDTA, 1 mM DTT, 200 mM NaCl. The GST-tagged proteins are then eluted by 10 applications (1 mL each) of 25 mM Tris-HCl, pH 7.5, 10 mM reduced-glutathione, 100 mM NaCl, 1 mM DTT, 10% glycerol and stored at −70° C.
Measure of enzyme activity: Tyrosine protein kinase assays with either purified GST-wtRET or GST-RET-Men2B protein are carried out in a final volume of 30 μL containing 15 ng of either GST-RET or GST-RET-Men2B protein, 20 mM Tris-HCl, pH 7.5, 1 mM MnCl2, 10 mM MgCl2, 1 mM DTT, 3 μg/mL poly(Glu, Tyr) 4:1, 1% DMSO, 2.0 μM ATP (γ-[^33P]-ATP 0.1 μCi). The activity is assayed in the presence or absence of inhibitors, by measuring the incorporation of ^33P from [γ^33P] ATP into poly(Glu, Tyr) 4:1. […] Subsequently, 40 μL of the reaction mixture are transferred onto Immobilon-PVDF membrane (Millipore) previously soaked for 5 minutes with methanol, rinsed with water, then soaked for 5 minutes with 0.5% H3PO4 and mounted on vacuum manifold with disconnected vacuum source. After spotting all samples, vacuum is connected and each well rinsed with 200 μL 0.5% H3PO4. Membranes are removed and washed 4× on a shaker with 1.0% H3PO4, once with ethanol. Membranes are counted after drying at ambient temperature, mounting in Packard TopCount 96-well frame, and addition of 10 μl/well of Microscint™ (Packard). […] One unit of protein kinase activity is defined as 1 nmole of ^33P transferred from [γ^33P] ATP to the substrate protein/minute/mg of protein at 37° C.

| SMILES | IC50 [nM] |
| --- | --- |
| Nc1cc(Oc2ccc(NC(=O)Nc3cc(CN4CCC4)cc(C(F)(F)F)c3)cc2)ncn1 [Example 4, N-[4-(6-Amino-pyrimidin-4-yloxy)-phenyl]-N′-(3-azetidin-1-ylmethyl-5-trifluoromethyl-phenyl)-urea] | 83 |
| CNc1cc(Oc2ccc(NC(=O)Nc3cc(CN4CCN(C(C)C)CC4)cc(C(F)(F)F)c3)cc2)ncn1 [Example 6, N-[4-(6-Methylamino-pyrimidin-4-yloxy)-phenyl]-N′-[3-(4-isopropylpiperazin-1-ylmethyl)-5-trifluoromethyl-phenyl]-urea] | 960 |
| CC(C)N1CCN(Cc2ccc(NC(=O)Nc3ccc(Oc4cc(N)ncn4)cc3)cc2C(F)(F)F)CC1 [Example 19, N-[4-(6-Amino-pyrimidin-4-yloxy)-phenyl]-N′-[4-(4-isopropylpiperazin-1-ylmethyl)-3-trifluoromethyl-phenyl]-urea] | 550 |
| CC(C)(C)N1CCN(Cc2ccc(NC(=O)Nc3ccc(Oc4ccnc(N)n4)cc3)cc2C(F)(F)F)CC1 [Example 50] | 560 |
| Cc1ncn(Cc2ccc(NC(=O)Nc3ccc(Oc4ccnc(N)n4)cc3)cc2C(F)(F)F)c1C [Example 51a.1, 1-[4-(2-Amino-pyrimidin-4-yloxy)-phenyl]-3-(4-(4,5-dimethyl-imidazol-1-ylmethyl)-3-trifluoromethyl-phenyl]-urea] | 850 |

Results, then the molecule that gave them:

| IC50 [nM] | SMILES |
| --- | --- |
| 180 | CN1CCN(Cc2ccc(NC(=O)Nc3ccc(Oc4ccnc(N)n4)cc3)cc2C(F)(F)F)CC1 [Example 52a, 1-[4-(2-amino-pyrimidin-4-yloxy)-phenyl]-3-[4-(4-methylpiperazin-1-ylmethyl)-3-trifluoromethyl-phenyl]-urea] |
| 310 | CCN1CCN(Cc2ccc(NC(=O)Nc3ccc(Oc4ccnc(N)n4)cc3)cc2C(F)(F)F)CC1 [Example 52c, 1-[4-(2-Amino-pyrimidin-4-yloxy)-phenyl]-3-[4-(4-ethyl-piperazin-1-ylmethyl)-3-trifluoromethyl-phenyl]-urea] |
| 450 | CNc1nccc(Oc2ccc(NC(=O)Nc3cc(N4CCN(C)CC4)cc(C(F)(F)F)c3)cc2)n1 [Example 53b, 1-[4-(2-Methylamino-pyrimidin-4-yloxy)-phenyl]-3-[3-(4-methyl-piperazin-1-yl)-5-trifluoromethyl-phenyl]-urea] |
| 450 | CNc1nccc(Oc2ccc(NC(=O)Nc3ccc(N4CCN(C)CC4)c(C(F)(F)F)c3)cc2)n1 [Example 53d, 1-[4-(2-Methylamino-pyrimidin-4-yloxy)-phenyl]-3-[4-(4-methyl-piperazin-1-yl)-3-trifluoromethyl-phenyl]-urea] |
